What is called IC50 is the concentration needed to halve the response being measured.

In this experiment the target is T1, full length SGK1 (Homo sapiens, UniProt O00141).
T1 construct: 125 μM full length SGK1 (Life Technologies Part #PR7358A); purchased Life Technologies PR7358A
T1 sequence (O00141 1-431): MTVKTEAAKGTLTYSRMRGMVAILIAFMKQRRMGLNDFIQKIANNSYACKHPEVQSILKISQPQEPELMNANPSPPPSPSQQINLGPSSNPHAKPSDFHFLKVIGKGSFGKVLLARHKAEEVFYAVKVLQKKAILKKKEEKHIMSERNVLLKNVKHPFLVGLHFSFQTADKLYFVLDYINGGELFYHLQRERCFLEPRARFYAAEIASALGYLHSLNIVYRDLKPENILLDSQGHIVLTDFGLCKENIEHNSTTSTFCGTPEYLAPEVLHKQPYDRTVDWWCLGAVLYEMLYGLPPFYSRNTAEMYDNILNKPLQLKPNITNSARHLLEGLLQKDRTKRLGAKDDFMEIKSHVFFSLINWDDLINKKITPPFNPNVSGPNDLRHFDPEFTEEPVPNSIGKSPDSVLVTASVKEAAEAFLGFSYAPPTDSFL
Nature of the experiment: SGK1 inhibition Assay A (Caliper LabChip electrophoretic separation of fluorescent peptide substrate and phosphorylated product). In kind it is biochemical. The conditions noted are these: Assay A; 20 μM ATP, 40 min incubation; read-out: SGK1 IC50.

For `N#Cc1ncc(-c2cc(N3CCC[C@@H](NC(=O)c4ccc(C(F)F)s4)C3)c3c(N)ncnn23)cc1C(F)(F)F` [Example 524, (R)-N-(1-(4-amino-7-(6-cyano-5-(trifluoromethyl)pyridin-3-yl)pyrrolo[2,1-f][1,2,4]triazin-5-yl)piperidin-3-yl)-5-(difluoromethyl)thiophene-2-carboxamide], the IC50 turned out to be 362 nM.
The value for `NC(=O)c1ncc(-c2cc(N3CCC[C@@H](NC(=O)c4ccc(C(F)F)s4)C3)c3c(N)ncnn23)cc1C(F)(F)F` [Example 525] was 26 nM; that for `Nc1ncnn2c(-c3ccc(=O)[nH]c3)cc(N3CCC[C@@H](NC(=O)c4ccc(C(F)F)s4)C3)c12` [Example 526, (R)-N-(1-(4-amino-7-(6-oxo-1,6-dihydropyridin-3-yl)pyrrolo[2,1-f][1,2,4]triazin-5-yl)piperidin-3-yl)-5-(difluoromethyl)thiophene-2-carboxamide] was 190 nM; that for `Nc1ncnn2c(-c3ccc(=O)n(C(F)F)c3)cc(N3CCC[C@@H](NC(=O)c4ccc(C(F)F)s4)C3)c12` [Example 527, (R)-N-(1-(4-amino-7-(1-(difluoromethyl)-6-oxo-1,6-dihydropyridin-3-yl)pyrrolo[2,1-f][1,2,4]triazin-5-yl)piperidin-3-yl)-5-(difluoromethyl)thiophene-2-carboxamide] was 148 nM.
As to `Nc1ncnn2c(-c3ccc(OC(F)F)nc3)cc(N3CCC[C@@H](NC(=O)c4ccc(C(F)F)s4)C3)c12` [Example 528, (R)-N-(1-(4-amino-7-(6-(difluoromethoxy)pyridin-3-yl)pyrrolo[2,1-f][1,2,4]triazin-5-yl)piperidin-3-yl)-5-(difluoromethyl)thiophene-2-carboxamide], the half-maximal inhibitory concentration (IC50) was 139 nM.
For `N#Cc1ncc(-c2cc(N3CCC[C@@H](NC(=O)c4ccc(Cl)s4)C3)c3c(N)ncnn23)cc1F` [Example 530, (R)-N-(1-(4-amino-7-(6-cyano-5-fluoropyridin-3-yl)pyrrolo[2,1-f][1,2,4]triazin-5-yl)piperidin-3-yl)-5-chlorothiophene-2-carboxamide], the IC50 was 11 nM.
Under `N#Cc1ncc(-c2cc(N3CCC[C@@H](NC(=O)c4ccc(Cl)s4)C3)c3c(N)ncnn23)cc1C(F)(F)F` [Example 531, (R)-N-(1-(4-amino-7-(6-cyano-5-(trifluoromethyl)pyridin-3-yl)pyrrolo[2,1-f][1,2,4]triazin-5-yl)piperidin-3-yl)-5-chlorothiophene-2-carboxamide] stands 18 nM; under `CCn1cc(-c2cc(N3CCC[C@@H](NC(=O)c4ccc(Cl)s4)C3)c3c(N)ncnn23)ccc1=O` [Example 532, (R)-N-(1-(4-amino-7-(1-ethyl-6-oxo-1,6-dihydropyridin-3-yl)pyrrolo[2,1-f][1,2,4]triazin-5-yl)piperidin-3-yl)-5-chlorothiophene-2-carboxamide], 6 nM; under `CC(C)(O)c1ncc(-c2cc(N3CCC[C@@H](NC(=O)c4ccc(Cl)s4)C3)c3c(N)ncnn23)cn1` [Example 533, (R)-N-(1-(4-amino-7-(2-(2-hydroxypropan-2-yl)pyrimidin-5-yl)pyrrolo[2,1-f][1,2,4]triazin-5-yl)piperidin-3-yl)-5-chlorothiophene-2-carboxamide], 728 nM.
With `Nc1ncnn2c(-c3ccc(OCC(F)F)nc3)cc(N3CCC[C@@H](NC(=O)c4ccc(Cl)s4)C3)c12` [Example 534, (R)-N-(1-(4-amino-7-(6-(2,2-difluoroethoxy)pyridin-3-yl)pyrrolo[2,1-f][1,2,4]triazin-5-yl)piperidin-3-yl)-5-chlorothiophene-2-carboxamide], the half-maximal inhibitory concentration (IC50) is 8 nM.
The value for `Nc1ncnn2c(-c3cnccn3)cc(N3CCC[C@@H](NC(=O)c4ccc(Cl)s4)C3)c12` [Example 535, (R)-N-(1-(4-amino-7-(pyrazin-2-yl)pyrrolo[2,1-f][1,2,4]triazin-5-yl)piperidin-3-yl)-5-chlorothiophene-2-carboxamide] was 58 nM.
The value for `Nc1ncnn2c(-c3ccc(=O)[nH]c3)cc(N3CCC[C@@H](NC(=O)c4ccc(Cl)s4)C3)c12` [Example 536, (R)-N-(1-(4-amino-7-(6-oxo-1,6-dihydropyridin-3-yl)pyrrolo[2,1-f][1,2,4]triazin-5-yl)piperidin-3-yl)-5-chlorothiophene-2-carboxamide] was 7 nM; that for `Nc1ncnn2c(-c3ccc(=O)n(C(F)F)c3)cc(N3CCC[C@@H](NC(=O)c4ccc(Cl)s4)C3)c12` [Example 537, (R)-N-(1-(4-amino-7-(1-(difluoromethyl)-6-oxo-1,6-dihydropyridin-3-yl)pyrrolo[2,1-f][1,2,4]triazin-5-yl)piperidin-3-yl)-5-chlorothiophene-2-carboxamide] was 2 nM.
Under `Nc1ncnn2c(-c3ccc(OC(F)F)nc3)cc(N3CCC[C@@H](NC(=O)c4ccc(Cl)s4)C3)c12` [Example 538, (R)-N-(1-(4-amino-7-(6-(difluoromethoxy)pyridin-3-yl)pyrrolo[2,1-f][1,2,4]triazin-5-yl)piperidin-3-yl)-5-chlorothiophene-2-carboxamide] stands 20 nM.
Turning to `Nc1ncnn2c(-c3ccc(C=O)cc3)cc(N3CCC[C@@H](NC(=O)c4ccc(Cl)s4)C3)c12` [Example 539], the IC50 stood at 0.4 nM.
The value for `CC(=O)N1CC=C(c2cc(N3CCC[C@@H](NC(=O)c4ccc(-c5ccnc(C(F)F)c5)s4)C3)c3c(N)ncnn23)C1` [Example 541, (R)—N-(1-(7-(1-acetyl-2,5-dihydro-1H-pyrrol-3-yl)-4-aminopyrrolo[2,1-f][1,2,4]triazin-5-yl)piperidin-3-yl)-5-(2-(difluoromethyl)pyridin-4-yl)thiophene-2-carboxamide] was 5 nM; that for `Nc1ncnn2c(-c3ccnc(C(F)F)c3)cc(N3CCC[C@@H](NC(=O)c4ccc(-c5ccnc(C(F)F)c5)s4)C3)c12` [Example 542, (R)-N-(1-(4-amino-7-(2-(difluoromethyl)pyridin-4-yl)pyrrolo[2,1-f][1,2,4]triazin-5-yl)piperidin-3-yl)-5-(2-(difluoromethyl)pyridin-4-yl)thiophene-2-carboxamide] was 4 nM; that for `N#Cc1ccc(-c2ccc(C(=O)N[C@@H]3CCCN(c4cc(-c5ccnc(C(F)F)c5)n5ncnc(N)c45)C3)s2)cc1` [Example 543, (R)-N-(1-(4-amino-7-(2-(difluoromethyl)pyridin-4-yl)pyrrolo[2,1-f][1,2,4]triazin-5-yl)piperidin-3-yl)-5-(4-cyanophenyl)thiophene-2-carboxamide] was 7 nM.
Under `N#Cc1cccc(-c2ccc(C(=O)N[C@@H]3CCCN(c4cc(-c5ccnc(C(F)F)c5)n5ncnc(N)c45)C3)s2)c1` [Example 544, (R)-N-(1-(4-amino-7-(2-(difluoromethyl)pyridin-4-yl)pyrrolo[2,1-f][1,2,4]triazin-5-yl)piperidin-3-yl)-5-(3-cyanophenyl)thiophene-2-carboxamide] stands 5 nM; under `CC(C)(C)OC(=O)N1CC=C(c2ccc(C(=O)N[C@@H]3CCCN(c4cc(-c5ccnc(C(F)F)c5)n5ncnc(N)c45)C3)s2)CC1` [Example 545, tert-butyl (R)-4-(5-((1-(4-amino-7-(2-(difluoromethyl)pyridin-4-yl)pyrrolo[2,1-f][1,2,4]triazin-5-yl)piperidin-3-yl)carbamoyl)thiophen-2-yl)-3,6-dihydropyridine-1(2H)-carboxylate], 22 nM.

The record behind these values is patent US20260250290A1 (BRISTOL-MYERS SQUIBB COMPANY, priority 2023, published 2026).
